This passage reports TGI results from PubChem BioAssay (NCI).

Test systems include CCRF-CEM leukemia; MOLT-4 leukemia; KM12 colon; SF-268 CNS; HCC-2998 colon; UO-31 renal; SF-539 CNS; COLO 205 colon; KM20L2 colon; MALME-3M melanoma; EKVX NSCLC; OVCAR-8 ovarian; SK-MEL-5 melanoma; A498 renal; TK-10 renal; IGROV1 ovarian; ACHN renal; HL-60(TB) leukemia.
What all share (experiment): growth of human tumour cells (NCI), 48 h

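Assay format: 96-well plates, 48-hour exposure. The concentration for full growth arrest is given as TGI.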 A value given as a limit tells only on which side of the number the result lay.

For the molecule `COc1cc2cccc(NC(=O)c3cc(OC)c(OC)c(OC)c3Br)c2cc1OC`, the TGI in the assay with CCRF-CEM leukemia was found to be 21.5 µM; in the assay with MOLT-4 leukemia, 8.81 µM; with KM12 colon it was 27.5 µM; with SF-268 CNS, 59.3 µM; with HCC-2998 colon, 85.4 µM; with UO-31 renal, 24.2 µM. For the same molecule, the TGI with SF-539 CNS is 46.8 µM; in the assay with COLO 205 colon, 26.6 µM; in the assay with KM20L2 colon, greater than 100 µM; in the assay on MALME-3M melanoma, 49.8 µM; with EKVX NSCLC it was 75.9 µM; in the assay with OVCAR-8 ovarian it was 85.4 µM. The TGI in the assay on SK-MEL-5 melanoma was 10.6 µM; in the assay with A498 renal, greater than 100 µM; in the assay with TK-10 renal, 92.6 µM; in the assay on IGROV1 ovarian it was 44.6 µM; in the assay with ACHN renal, 75.5 µM.

Turning to `C=CCCCCCC(O)C(O)C/C=C\C/C=C\CC` (stereo not drawn), the TGI with CCRF-CEM leukemia, in the assay with MOLT-4 leukemia, in the assay with KM12 colon, with SF-268 CNS, in the assay on HCC-2998 colon and with UO-31 renal was greater than 18.8 µM in each case. For the same molecule, the TGI in the assay with SF-539 CNS, with COLO 205 colon, in the assay on KM20L2 colon, with MALME-3M melanoma, in the assay with EKVX NSCLC and in the assay with OVCAR-8 ovarian was greater than 18.8 µM in each case. The TGI in the assay on HL-60(TB) leukemia, in the assay on SK-MEL-5 melanoma, in the assay with TK-10 renal, in the assay on IGROV1 ovarian and with ACHN renal was greater than 18.8 µM each time.

`N#CN1CCC=C(c2cc3ccccc3[nH]2)C1`: the TGI in the assay on CCRF-CEM leukemia, with MOLT-4 leukemia, in the assay on KM12 colon, in the assay with SF-268 CNS, in the assay with HCC-2998 colon and in the assay with SF-539 CNS was greater than 448 µM in each case. The TGI in the assay with COLO 205 colon, in the assay on KM20L2 colon, in the assay with MALME-3M melanoma, in the assay on EKVX NSCLC, in the assay on OVCAR-8 ovarian and in the assay on HL-60(TB) leukemia was greater than 448 µM throughout. For the same molecule, the TGI with SK-MEL-5 melanoma, in the assay on TK-10 renal, with IGROV1 ovarian and with ACHN renal was greater than 448 µM throughout.

Regarding `N#CC(NNC(=O)c1ccccc1O)c1ccccc1` (stereo not drawn), the TGI in the assay on CCRF-CEM leukemia is greater than 100 µM; in the assay with MOLT-4 leukemia it was greater than 100 µM; in the assay on KM12 colon, greater than 100 µM; with SF-268 CNS, greater than 100 µM; in the assay on UO-31 renal, 6.03 µM; in the assay with SF-539 CNS, greater than 100 µM. The TGI in the assay on COLO 205 colon is greater than 100 µM; with KM20L2 colon, greater than 100 µM; in the assay with MALME-3M melanoma, greater than 100 µM; in the assay on OVCAR-8 ovarian, greater than 100 µM; with HL-60(TB) leukemia it was 52.5 µM; with SK-MEL-5 melanoma, greater than 100 µM. In addition, the TGI in the assay on TK-10 renal, with IGROV1 ovarian and in the assay with ACHN renal was greater than 100 µM in each case.

`COc1ccc(CCc2ccccc2CC(=O)O)cc1`: the TGI in the assay with CCRF-CEM leukemia, in the assay on MOLT-4 leukemia, in the assay with KM12 colon, in the assay with SF-268 CNS, in the assay with HCC-2998 colon and in the assay on UO-31 renal was greater than 100 µM each time. Besides, the TGI in the assay with SF-539 CNS, with COLO 205 colon, with KM20L2 colon, in the assay with MALME-3M melanoma, with EKVX NSCLC and in the assay with OVCAR-8 ovarian was greater than 100 µM throughout. The TGI with HL-60(TB) leukemia, with SK-MEL-5 melanoma, in the assay on A498 renal, in the assay with TK-10 renal, with IGROV1 ovarian and in the assay with ACHN renal was greater than 100 µM each time.

In the case of `CS/C(c1ccccc1)=[N+](/C)[O-]`, the TGI is greater than 81.8 µM in the assay with CCRF-CEM leukemia; greater than 100 µM with MOLT-4 leukemia; greater than 100 µM with KM12 colon; greater than 100 µM in the assay with SF-268 CNS; greater than 100 µM with HCC-2998 colon; greater than 100 µM in the assay with UO-31 renal. The TGI with SF-539 CNS was greater than 100 µM; in the assay on COLO 205 colon, greater than 61.5 µM; with KM20L2 colon, greater than 100 µM; with MALME-3M melanoma, greater than 100 µM; in the assay with EKVX NSCLC, greater than 100 µM; in the assay on OVCAR-8 ovarian it was greater than 100 µM. The TGI in the assay on HL-60(TB) leukemia, in the assay on SK-MEL-5 melanoma, with A498 renal, in the assay with TK-10 renal, with IGROV1 ovarian and in the assay on ACHN renal was greater than 100 µM throughout.

With `c1ccc2c3c([nH]c2c1)C1(CCCCC1)c1c([nH]c2ccccc12)C31CCCCC1`, the TGI in the assay on CCRF-CEM leukemia was greater than 100 µM; in the assay with MOLT-4 leukemia it was greater than 100 µM; with KM12 colon, greater than 100 µM; in the assay on SF-268 CNS, 95.4 µM; with HCC-2998 colon, 85.6 µM; with UO-31 renal, greater than 100 µM. The TGI was greater than 100 µM in the assay on COLO 205 colon; greater than 100 µM with KM20L2 colon; 80.1 µM with MALME-3M melanoma; 61.7 µM in the assay with EKVX NSCLC; 50.4 µM in the assay on OVCAR-8 ovarian; greater than 100 µM with HL-60(TB) leukemia. The TGI is 85.2 µM with SK-MEL-5 melanoma; 54 µM with A498 renal; 88.7 µM in the assay on TK-10 renal; greater than 100 µM with IGROV1 ovarian; 59 µM in the assay on ACHN renal.

Take `C/C(=N\O)C(CN1CCCCC1)C(c1ccccc1)c1c(O)c2ccccc2oc1=O` (stereo not drawn): the TGI in the assay on CCRF-CEM leukemia is greater than 10 µM; with SF-268 CNS it was greater than 100 µM; in the assay on HCC-2998 colon, greater than 100 µM; with SF-539 CNS, greater than 100 µM; in the assay with COLO 205 colon, greater than 100 µM; in the assay with KM20L2 colon it was greater than 100 µM. Moreover, the TGI is greater than 100 µM in the assay with MALME-3M melanoma; greater than 100 µM with EKVX NSCLC; greater than 100 µM in the assay on OVCAR-8 ovarian; greater than 10 µM in the assay on HL-60(TB) leukemia; greater than 100 µM in the assay on SK-MEL-5 melanoma; greater than 100 µM in the assay with A498 renal. The TGI with TK-10 renal, in the assay on IGROV1 ovarian and in the assay with ACHN renal was greater than 100 µM throughout.
